Test results published in patent publication US20100137398A1, “USE OF HDAC INHIBITORS FOR THE TREATMENT OF GASTROINTESTINAL CANCERS” (NOVARTIS AG, priority 2007, published 2010).

Legend:
Assay in all cases: Monolayer growth inhibition assay (MTT/MTS)
Assay type in all cases: cell-based
[1] = test system: C170 colon cancer cell line
Excerpt: (§1) The MTT is a colorimetric assay to determine the cell proliferation rate. The yellow tetrazolium MTT (3-(4, 5-dimethylthiazolyl-2)-2, 5-diphenyltetrazolium bromide) is reduced, by metabolically active cells, in part by the action of dehydrogenase enzymes, to generate reducing equivalents such as NADH and NADPH. The resulting intracellular purple formazan can be solubilized and quantified by spectrophotometric means. The signals produced is directly proportional to the cell numbers. Describing the MTT assay in detail, experiments were done using six-point or 9 point drug titrations in multi-well tissue culture dishes, with outer rows left empty. Cells were suspended in complete media at densities of between 10^3 and 10^4 cell/ml, respectively, and added per well. The appropriate medium (200 μl) was then added. Twenty-four hours later, 10 μl of MTS solution, were added to one plates to determine the activity at the time of compound addition (T0). This plate was incubated at 37° for 4 hours and the optical density was measured on a Molecular Devices Thermomax at 490 nm using the Softmax program. The T0 plate served as a reference for initial activity at the beginning of the experiment.
(§2) Compound addition began 24 hours after seeding, the same time as the T0 determination. Serial dilutions at 4-fold 2-fold, 1-fold, 0.5-fold, 0.25-fold and 0.125-fold of previously determined IC50 values of each compound were made in a 96-deep well plate with the highest concentrations on the edge of the plate. Each of the six dilutions were added in triplicate and complete medium was added to the empty outer rows, without cells. The compounds were added to the plates singly or in combination with Compound III (LBH589). The plates were incubated at 37° C. for 72 hours from seeding. The MTS solution was added (as for the T0 plate) and read four hours later. In order to analyze the data, the average value of media alone (background) was subtracted from each experimental well and the triplicate values were averaged for each compound dilution. The following formulas were used to calculate percent growth.
(§3) If X>T0, % Growth=100×(X−T0)/(GC−T0))
(§4) If X<T0, % Growth=100×(X−T0)/T0)
(§5) T0=average value of T0 minus background
(§6) GC=average value of untreated cells (in triplicate) minus background X=average value, of compound treated cells (in triplicate) minus background
(§7) IC50 the concentration of LBH589 required to inhibit cell growth by 50% and LD50s the concentration required to reduce cell number (kill cells) to 50% the original innoculum were determined. The “% Growth” was plotted against compound concentration and used to calculate IC50s and LD50s, employing the user-defined spline function in Microsoft Excel.
(§8) Colon cancer cell lines were treated with DMSO vehicle control or varying concentrations of LBH589 for 3 days. Cell proliferation was measured on the day of cell plating and on the third day post-treatment. IC50 and LD50 values were calculated as described above.

[2] = test system: Colo320HSR colon cancer cell line
Excerpt: as §1, §2, §3, §4, §5, §6, §7, §8

[3] = test system: CL-11 colon cancer cell line
Excerpt: as §1, §2, §3, §4, §5, §6, §7, §8

[4] = test system: SW480 colon cancer cell line
Excerpt: as §1, §2, §3, §4, §5, §6, §7, §8

[5] = test system: Colo741 colon cancer cell line
Excerpt: as §1, §2, §3, §4, §5, §6, §7, §8

[6] = test system: C2Bbe-1 colon cancer cell line
Excerpt: as §1, §2, §3, §4, §5, §6, §7, §8

[7] = test system: Colo678 colon cancer cell line
Excerpt: as §1, §2, §3, §4, §5, §6, §7, §8

[8] = test system: SNU-C1 colon cancer cell line
Excerpt: as §1, §2, §3, §4, §5, §6, §7, §8

[9] = test system: SW1116 colon cancer cell line
Excerpt: as §1, §2, §3, §4, §5, §6, §7, §8

[10] = test system: HCT116 colon cancer cell line
Excerpt: as §1, §2, §3, §4, §5, §6, §7, §8

[11] = test system: Colo320DM colon cancer cell line
Excerpt: as §1, §2, §3, §4, §5, §6, §7, §8

[12] = test system: HCT8 colon cancer cell line
Excerpt: as §1, §2, §3, §4, §5, §6, §7, §8

[13] = test system: T84 colon cancer cell line
Excerpt: as §1, §2, §3, §4, §5, §6, §7, §8

[14] = test system: KM20L2 colon cancer cell line
Excerpt: as §1, §2, §3, §4, §5, §6, §7, §8

[15] = test system: HT55 colon cancer cell line
Excerpt: as §1, §2, §3, §4, §5, §6, §7, §8

[16] = test system: SW620 colon cancer cell line
Excerpt: as §1, §2, §3, §4, §5, §6, §7, §8

[17] = test system: LS174T colon cancer cell line
Excerpt: as §1, §2, §3, §4, §5, §6, §7, §8

[18] = test system: Colo205 colon cancer cell line
Excerpt: as §1, §2, §3, §4, §5, §6, §7, §8

[19] = test system: Colo201 colon cancer cell line
Excerpt: as §1, §2, §3, §4, §5, §6, §7, §8

[20] = 3 days, concentration reducing cell number to 50% of original inoculum

For `Cc1[nH]c2ccccc2c1CCNCc1ccc(/C=C/C(=O)NO)cc1` [LBH589, N-hydroxy-3-[4-[[[2-(2-methyl-1H-indol-3-yl)ethyl]-amino]methyl]phenyl]-2E-2-propenamide], the “LD50” value ([1]; C170, 3 days, concentration reducing cell number to 50% of original inoculum) was 382.03 nM, the IC50 ([1]; Homo sapiens, 72 h, C170, 3 days treatment) was 62.3 nM and the “LD50” value [2, 20] was >10 µM. The IC50 ([2]; Homo sapiens, COLO-320-HSR, 72 h, 3 days treatment) was 13.8 nM, the IC50 ([3]; 72 h, CL-11, 3 days treatment) was 3.54 nM and the “LD50” value ([3]; CL-11, 3 days, concentration reducing cell number to 50% of original inoculum) was 25.92 nM. The IC50 ([4]; Homo sapiens, 72 h, SW480, 3 days treatment) was 1.48 nM, the “LD50” value ([4]; SW480, 3 days, concentration reducing cell number to 50% of original inoculum) was 6.90 nM and the “LD50” value ([5]; Colo741, 3 days, concentration reducing cell number to 50% of original inoculum) was 33.73 nM. The IC50 ([5]; Homo sapiens, COLO-741, 72 h, Colo741, 3 days treatment) was 9.22 nM, the “LD50” value ([6]; C2Bbe-1, 3 days, concentration reducing cell number to 50% of original inoculum) was 243.12 nM and the IC50 ([6]; Homo sapiens, C2BBe1, 72 h, C2Bbe-1, 3 days treatment) was 27.5 nM. The “LD50” value ([7]; Colo678, 3 days, concentration reducing cell number to 50% of original inoculum) was 45.52 nM, the IC50 ([7]; Homo sapiens, COLO-678, 72 h, Colo678, 3 days treatment) was 5.6 nM and the IC50 ([8]; Homo sapiens, 72 h, SNU-C1, 3 days treatment) was 4.51 nM. The “LD50” value ([8]; SNU-C1, 3 days, concentration reducing cell number to 50% of original inoculum) was 26.07 nM, the IC50 ([9]; Homo sapiens, SW 1116, 72 h, SW1116, 3 days treatment) was 2.28 nM and the “LD50” value ([9]; SW1116, 3 days, concentration reducing cell number to 50% of original inoculum) was 26.93 nM. The “LD50” value ([10]; HCT116, 3 days, concentration reducing cell number to 50% of original inoculum) was 51.72 nM, the IC50 ([10]; Homo sapiens, HCT-116, 72 h, HCT116, 3 days treatment) was 7.11 nM and the “LD50” value [11, 20] was 1103.37 nM. The IC50 ([11]; Homo sapiens, COLO 320DM, 72 h, 3 days treatment) was 29.5 nM, the “LD50” value ([12]; HCT8, 3 days, concentration reducing cell number to 50% of original inoculum) was 77.70 nM and the IC50 ([12]; Homo sapiens, HCT-8, 72 h, HCT8, 3 days treatment) was 4.94 nM. For the same molecule, the IC50 ([13]; 72 h, T84, 3 days treatment) was 2.16 nM, the “LD50” value ([13]; T84, 3 days, concentration reducing cell number to 50% of original inoculum) was 32.82 nM and the IC50 ([14]; Homo sapiens, KM-20L2, 72 h, KM20L2, 3 days treatment) was 14.6 nM. For the same molecule, the “LD50” value ([14]; KM20L2, 3 days, concentration reducing cell number to 50% of original inoculum) was 16.95 nM, the “LD50” value ([15]; HT55, 3 days, concentration reducing cell number to 50% of original inoculum) was 334.52 nM and the IC50 ([15]; Homo sapiens, 72 h, HT55, 3 days treatment) was 8.21 nM. The IC50 ([16]; Homo sapiens, SW-620, 72 h, SW620, 3 days treatment) was 0.79 nM, the “LD50” value ([16]; SW620, 3 days, concentration reducing cell number to 50% of original inoculum) was 1.70 nM and the “LD50” value [17, 20] was 87.41 nM. The IC50 ([17]; Homo sapiens, 72 h, 3 days treatment) was 16.8 nM, the “LD50” value ([18]; Colo205, 3 days, concentration reducing cell number to 50% of original inoculum) was 33.52 nM and the IC50 ([18]; Homo sapiens, COLO 205, 72 h, Colo205, 3 days treatment) was 14.7 nM. The “LD50” value ([19]; Colo201, 3 days, concentration reducing cell number to 50% of original inoculum) was 20.14 nM and the IC50 ([19]; Homo sapiens, COLO 201, 72 h, Colo201, 3 days treatment) was 15.1 nM.
